{"source": "patent US5998435A", "about": "“Use of a tachykinin antagonist for the manufacture of a medicament for the treatment of emesis” (priority 1998, dated 1999)", "key": {"NK1 receptor [1]": {"target": "T1, NK1 receptor (Meriones unguiculatus, UniProt Q5DUB1)", "T1 construct": "centrally NK1 receptor mediated foot-tapping response was examined in the gerbil; from tissue; host or cells: whole animal (gerbil), central NK1 receptors, i.c.v. agonist", "T1 sequence (Q5DUB1 whole entry)": "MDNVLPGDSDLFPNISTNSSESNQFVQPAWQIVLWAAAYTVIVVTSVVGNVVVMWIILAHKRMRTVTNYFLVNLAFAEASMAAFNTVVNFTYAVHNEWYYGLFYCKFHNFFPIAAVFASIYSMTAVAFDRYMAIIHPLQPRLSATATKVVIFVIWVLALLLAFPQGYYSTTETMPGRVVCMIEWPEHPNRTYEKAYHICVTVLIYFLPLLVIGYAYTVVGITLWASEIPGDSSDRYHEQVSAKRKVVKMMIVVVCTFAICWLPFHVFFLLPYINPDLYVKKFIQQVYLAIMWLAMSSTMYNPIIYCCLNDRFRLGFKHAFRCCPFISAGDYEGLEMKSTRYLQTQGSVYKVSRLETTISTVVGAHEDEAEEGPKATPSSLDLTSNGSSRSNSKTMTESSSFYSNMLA", "details": "administered systemically 30 minutes before [Sar9,Met(O2)11]-substance P; cited from earlier work"}, "cisplatin-induced emesis [2]": {"test_system": "cisplatin-induced emesis", "assay": "Cisplatin-induced acute emesis in the ferret", "assay_type": "in vivo", "details": "ferret", "text": "Adult male albino Fitch ferrets (>1 kg weight) were individually housed with free access to food (SDS Diet \"C\", Special Diet Services Ltd, Essex, U.K.). Thirty minutes prior to the commencement of the studies, the ferrets were presented with 100 g of commercially available tinned cat food."}, "NK1 receptor [3]": {"target": "T1, NK1 receptor", "assay": "[Sar9,Met(O2)11]substance P-induced hind foot tapping in the gerbil", "assay_type": "in vivo", "experimental": "FIG. 3. […] The duration of foot tapping (sec) was recorded for 5 minutes immediately following recovery of the animals righting reflex.\nGerbils were anaesthetized with isoflurane, and an incision was made to expose the skull. […] Animals were placed individually into observation boxes, and duration of hind foot tapping was recorded for 5 minutes immediately following recovery of the animals' righting reflex."}, "cisplatin-induced emesis [4]": {"test_system": "cisplatin-induced emesis", "details": "cisplatin 5 mg/kg i.p."}, "[5]": {"details": "The Compound 10 mg/kg or ondansetron 1 mg/kg i.p. three times a day"}}, "data": [{"smiles": "COc1ccccc1CN[C@H]1CCCN[C@H]1c1ccccc1", "note": "[CP-99,994]", "values": [{"measurement": "inhibition of the foot-tapping response", "setting": "NK1 receptor [1]", "value": "dose-dependentlyinhibit"}]}, {"smiles": "CN(C)CC(=O)OCC(NC(=O)C(C)(Cc1c[nH]c2ccccc12)NC(=O)OCc1cc2ccccc2o1)c1ccccc1", "note": "(stereo not shown) [Compound 2, Dimethylamino-acetic acid 2-[2-(benzofuran-2-ylmethoxycarbonylamino)-3-(1H-indol-3-yl)-2-methyl-propionylamino]-2-phenyl-ethyl ester]", "values": [{"measurement": "block of cisplatin-induced emesis", "setting": "cisplatin-induced emesis [2]", "value": "inability"}, {"measurement": "block of the foot-tapping response, s.c.", "setting": "NK1 receptor [3]; 1-100 mg/kg s.c.", "value": "failed to block"}, {"measurement": "MED, antagonism of foot-tapping response, i.c.v.", "setting": "NK1 receptor [3]; i.c.v. administration", "value": 10, "unit": "μg/animal"}]}, {"smiles": "Cc1nccn1CC1CCc2c(c3ccccc3n2C)C1=O", "note": "(stereo not shown) [ondansetron]", "values": [{"measurement": "delayed emesis during the 3 days (3-72 hours)", "setting": "cisplatin-induced emesis [4]; [5]", "value": "much lower activity"}, {"measurement": "retching and vomiting during the first 3 hours of the emetic response (acute)", "setting": "cisplatin-induced emesis [4]; [5]", "value": "completely blocked"}, {"measurement": "effect during the start of the delayed response (Day 1, 3-24 hours)", "setting": "cisplatin-induced emesis [4]; ondansetron 1 mg/kg i.p. tid", "value": "failed to show any effect"}]}]}
